Data taken from the supplement of paper PMC11451515.

Tested on: P12-Ichikawa
Experiment: cell viability relative to DMSO control; higher = less cytotoxic
Conditions: 48 h
In short: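 NOMO1, SEM and P12-Ichikawa leukemia cells spent at least four passages adapting to each medium before use. They were seeded at 500 cells/well (NOMO1, SEM) or 1000 cells/well (P12-Ichikawa) in 5 μl in 1536-well plates and pin-dosed with library compounds in DMSO at 11 threefold steps from 47 μM down to 0.79 nM. After 48 h at 37°C, CellTiter-Glo One luminescence was read. Viability is reported as a percentage of the DMSO wells on each plate, with cell-free wells as background.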

N#Cc1ccc(Oc2ccc3c(c2)COB3O)cc1
cell viability [%]
Conditions | HPLM + 10% dialyzed FBS | RPMI 5 mM glucose + 10% FBS | RPMI 5 mM glucose + 10% dialyzed FBS
0.000781 µM | 112 | 117 | 119
0.00234 µM | 119 | 120 | 117
0.00702 µM | 123 | 127 | 113
0.0211 µM | 90.6 | 81.7 | 83.9
0.0632 µM | 129 | 135 | 132
0.19 µM | 125 | 125 | 120
0.569 µM | 125 | 139 | 135
1.71 µM | 102 | 138 | 139
5.12 µM | 81.5 | 123 | 130
15.4 µM | 80.6 | 124 | 124
46.1 µM | 33.9 | 53.1 | 38.6
